Test results published in patent publication US20210363110A1, “4-METHYLDIHYDROPYRIMIDINONE COMPOUNDS AND PHARMACEUTICAL USE THEREOF” (Japan Tobacco Inc., priority 2018, published 2021).

Assays:
human RORγ = target: T1, human RORγ (Homo sapiens, UniProt P51449); assay: Reporter gene assay for inhibitory effect against RORγ transcriptional activity (GAL4-hRORγ LBD, luciferase, CHO cells); assay type: cell-based; details: pFA/hRORγ + pG5-Luc, 2 days incubation
T1 construct: from Ser253 to Lys518 for human RORγ; expressed in transfected cells; host or cells: CHO cells (transient co-transfection with pG5-Luc)
T1 sequence (P51449 253-518): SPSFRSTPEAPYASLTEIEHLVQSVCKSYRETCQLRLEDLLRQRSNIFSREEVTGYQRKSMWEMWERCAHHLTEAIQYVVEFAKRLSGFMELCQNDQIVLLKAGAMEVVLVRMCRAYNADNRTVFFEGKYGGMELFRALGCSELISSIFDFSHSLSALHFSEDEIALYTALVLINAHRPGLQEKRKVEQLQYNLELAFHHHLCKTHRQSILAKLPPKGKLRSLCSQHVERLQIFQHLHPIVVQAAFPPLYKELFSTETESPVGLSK
Experimental: (§1) Inhibitory effect against RORγ transcriptional activity was assessed by reporter gene assay for test compounds.
(§2) cDNAs encoding human and mouse RORγ ligand binding domains (LBD) were obtained based on the sequences of human RORγ (Genbank registered number NM_005060.3) and mouse RORγ (Genbank registered number NM_011281.2) (LBD sequences: from Ser253 to Lys518 for human RORγ; from Ile251 to Lys516 for mouse RORγ).
(§3) LBD cDNAs of human and mouse RORγ were inserted into pFA-CMV vector (Agilent Technologies, Inc.), which expresses GAL4-DNA binding domain fusion protein. The resulting plasmids are hereinafter referred to as pFA/hRORγ plasmid and pFA/mRORγ plasmid, respectively. […]
(§4) Cell viability was tested by luminescence method with CellTiter-Glo (Promega). […] Ten minutes after the addition, luminescence was measured for each well with a microplate reader. The luminescence count in the cells treated with 0.2% DMSO alone was defined as 100%, and the cell viability after treatment with the test compound was calculated as a percentage (%-of-control) based on the value of 0.2% DMSO alone. When the cell viability was 70% or less, a test compound was assessed to have cytotoxicity.
(§5) RORγ transcriptional activity was detected as the intracellular luciferase activity using SteadyLite HTS Reporter Gene Assay System (Perkin Elmer). […]

mouse RORγ = target: T2, mouse RORγ (Mus musculus, UniProt P51450); assay: Reporter gene assay for inhibitory effect against RORγ transcriptional activity (GAL4-mRORγ LBD, luciferase, CHO cells); assay type: cell-based; details: pFA/mRORγ + pG5-Luc, 2 days incubation
T2 construct: from Ile251 to Lys516 for mouse RORγ; expressed in transfected cells; host or cells: CHO cells (transient co-transfection with pG5-Luc)
T2 sequence (P51450 251-516): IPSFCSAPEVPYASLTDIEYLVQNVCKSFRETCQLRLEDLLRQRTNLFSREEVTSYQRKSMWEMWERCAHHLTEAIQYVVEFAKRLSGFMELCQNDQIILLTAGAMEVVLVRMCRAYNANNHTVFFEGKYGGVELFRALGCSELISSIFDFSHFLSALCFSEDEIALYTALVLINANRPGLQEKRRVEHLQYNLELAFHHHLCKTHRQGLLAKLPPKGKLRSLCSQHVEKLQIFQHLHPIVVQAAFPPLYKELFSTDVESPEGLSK
Experimental: as §1, §2, §3, §4, §5

CYP3A4 = assay: Potential for induction of CYP3A4 (Nuclear Receptor Activation Kit, DPX2 cells, reporter activity); assay type: in vitro ADME; details: 48 hours, % of positive control (rifampicin); for Potential for induction of CYP3A4, 3 μM: 3 μM compound; for Potential for induction of CYP3A4, 10 μM: 10 μM compound
Experimental: Potential for induction of CYP3A4 was evaluated with Nuclear Receptor Activation Kits (PURACYP; DPX2-96-002) according to protocols attached.
The following experiment was performed with substances accompanying Nuclear Receptor Activation Kits (PURACYP; DPX2-96-002).
A measurement method is specifically shown as follows. DPX2 cells were seeded on a 96-well plate and incubated with a CO2 incubator for 24 hours. […] The media on 96-well plate were removed with an aspirator 24 hours after seeding, and thereto was added the compound-supplemented medium which was prepared. CellTiter-Fluor was added to the medium 48 hours after the addition of compound, and the mixture was incubated with a CO2 incubator for 1 hour. Then, a cell viability was measured by the fluorometric method. ONE-Glo was added to the mixture, and the mixture was incubated with a CO2 incubator for 5 minutes. Then, the reporter activity was measured by luminescent determination. The induction ratio was calculated by comparing the resulting reporter activity with a DMSO control sample. % of positive control was calculated from the following equation.

| Compound | EC50 (human RORγ) [µM] | EC50 (mouse RORγ) [µM] | Potential for induction of CYP3A4, 3 μM (CYP3A4) [%] | Potential for induction of CYP3A4, 10 μM (CYP3A4) [%] | Potential for induction of CYP3A4, 30 μM (CYP3A4; 30 μM compound) [%] |
| --- | --- | --- | --- | --- | --- |
| CC[C@H](C)C1=CN(C23CC(C(=O)O)(C2)C3)C(=O)N[C@@]1(C)c1ccc([C@@H]2C[C@H]2C(C)(C)C)c(Cl)c1 [Compound (2), 3-{(S)-5-((S)-sec-Butyl)-4-[4-((1R,2R)-2-tert-butyl-cyclopropyl)-3-chloro-phenyl]-4-methyl-2-oxo-3,4-dihydro-2H-pyrimidin-1-yl}bicyclo[1.1.1]pentane-1-carboxylic acid] | 0.014 | 0.029 | <10 | <10 |  |
| CC(C)C1=CN(C23CC(C(=O)O)(C2)C3)C(=O)N[C@@]1(C)c1ccc([C@@H]2C[C@H]2C(C)(C)C)c(Cl)c1 [Compound (1), 3-{(S)-4-[4-((1R,2R)-2-tert-Butyl-cyclopropyl)-3-chloro-phenyl]-5-isopropyl-4-methyl-2-oxo-3,4-dihydro-2H-pyrimidin-1-yl}bicyclo[1.1.1]pentane-1-carboxylic acid] | 0.023 | 0.023 | <10 | <10 | <10 |
